Molecular target: T1, human αVβ6 (Homo sapiens, UniProt P06756+P18564)
T1 construct: purchased R & D systems 3817-AV
Experiment: human αVβ6 HTRF binding assay
Conditions: recombinant human αVβ6 integrin, FITC-conjugated fibronectin
Protocol: All binding assays used the HTRF (homogeneous time resolved fluorescence) technology from Cisbio International, therefore all assays are described as HTRF binding assays. The assay results for the Examples are listed above together with the characterization data. The HTRF binding assays are established for the following integrins: human αVβ6, human αVβ1, human αVβ3, human αVβ5, and human αVβ8. All assays used the following assay buffer: 20 mM Tris, pH 7.4, 1 mM MgCl2, 1 mM MnCl2, 0.01% Tween 20, and 0.01% BSA. Alternatively, a SPA-based assay was used for evaluation of receptor binding.
The following describes the components and a representative procedure for the human αVβ6 HTRF binding assay: Recombinant human αVβ6 Integrin (R & D systems, 3817-AV) was biotinylated. Biotinylated human αVβ6 Integrin was added to assay vessel at a final concentration of 1.25 nM. FITC-conjugated fibronectin (Cytoskeleton, FNR02) was then added at the final concentration of 5 nM. The mixture was centrifuged at 600 rpm for three minutes using Thermo Fisher Heraeus Multifuge X3 centrifuge and then incubated at room temperature for an hour. Streptavidin Terbium (Cisbio international 610STLB) was then added at the final concentration of 0.625 nM. The resulting mixture was centrifuged at 600 rpm for three minutes using Thermo Fisher Heraeus Multifuge X3 centrifuge and then incubated at room temperature overnight in dark before reading HTRF signals. […]

T1 sequence (P06756 31-992 limits assumed): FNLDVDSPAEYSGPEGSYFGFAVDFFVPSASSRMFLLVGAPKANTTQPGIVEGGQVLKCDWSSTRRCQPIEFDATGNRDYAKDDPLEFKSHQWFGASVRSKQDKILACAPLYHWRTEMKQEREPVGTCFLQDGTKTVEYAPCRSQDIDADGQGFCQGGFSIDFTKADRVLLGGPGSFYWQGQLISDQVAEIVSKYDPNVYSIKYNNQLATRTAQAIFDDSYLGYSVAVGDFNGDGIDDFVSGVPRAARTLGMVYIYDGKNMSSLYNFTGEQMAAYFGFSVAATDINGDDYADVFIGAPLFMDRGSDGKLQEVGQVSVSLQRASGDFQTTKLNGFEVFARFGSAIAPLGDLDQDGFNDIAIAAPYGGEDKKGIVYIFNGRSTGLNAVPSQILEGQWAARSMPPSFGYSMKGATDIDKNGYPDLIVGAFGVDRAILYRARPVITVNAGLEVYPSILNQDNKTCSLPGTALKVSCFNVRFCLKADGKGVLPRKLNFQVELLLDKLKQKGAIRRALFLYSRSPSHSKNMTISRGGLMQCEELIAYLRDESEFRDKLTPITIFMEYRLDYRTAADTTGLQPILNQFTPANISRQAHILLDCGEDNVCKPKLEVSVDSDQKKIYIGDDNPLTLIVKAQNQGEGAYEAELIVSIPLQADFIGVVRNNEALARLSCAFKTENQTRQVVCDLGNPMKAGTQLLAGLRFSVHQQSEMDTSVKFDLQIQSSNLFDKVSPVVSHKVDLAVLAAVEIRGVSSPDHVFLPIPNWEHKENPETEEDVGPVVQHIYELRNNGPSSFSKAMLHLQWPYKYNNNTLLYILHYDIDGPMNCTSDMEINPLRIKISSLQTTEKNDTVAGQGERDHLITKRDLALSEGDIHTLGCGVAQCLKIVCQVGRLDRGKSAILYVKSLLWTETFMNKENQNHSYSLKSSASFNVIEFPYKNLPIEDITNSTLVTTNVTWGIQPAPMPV
T1 sequence (P18564 22-707 limits assumed): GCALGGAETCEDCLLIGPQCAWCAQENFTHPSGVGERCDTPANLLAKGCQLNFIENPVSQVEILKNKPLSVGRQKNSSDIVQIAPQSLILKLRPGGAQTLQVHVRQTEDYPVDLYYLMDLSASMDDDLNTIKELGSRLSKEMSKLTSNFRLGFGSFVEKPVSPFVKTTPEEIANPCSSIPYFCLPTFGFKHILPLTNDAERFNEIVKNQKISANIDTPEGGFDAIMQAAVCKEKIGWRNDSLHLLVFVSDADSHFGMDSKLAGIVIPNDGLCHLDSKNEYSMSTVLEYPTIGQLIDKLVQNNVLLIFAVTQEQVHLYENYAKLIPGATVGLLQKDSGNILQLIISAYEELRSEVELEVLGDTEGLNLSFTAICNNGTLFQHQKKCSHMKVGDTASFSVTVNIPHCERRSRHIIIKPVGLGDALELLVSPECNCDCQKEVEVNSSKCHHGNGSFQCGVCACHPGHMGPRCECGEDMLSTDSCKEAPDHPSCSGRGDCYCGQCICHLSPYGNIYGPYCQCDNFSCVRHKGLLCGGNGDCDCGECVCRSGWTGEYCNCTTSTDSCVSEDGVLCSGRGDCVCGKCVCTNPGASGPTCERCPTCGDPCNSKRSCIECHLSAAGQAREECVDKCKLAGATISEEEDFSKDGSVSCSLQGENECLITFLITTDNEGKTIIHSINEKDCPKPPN

Compound	IC50
Cc1ncc([C@@H](CC(=O)O)n2ncc3cc(OCCc4ccc5c(n4)N[C@H](C)CC5)ccc32)cn1 (single isomer, unassigned) [Example 175]	6000 nM
Cc1ncc([C@H](CC(=O)O)n2ncc3cc(OCCc4ccc5c(n4)N[C@H](C)CC5)ccc32)cn1 (single isomer, unassigned) [Example 176]	33 nM
Cc1ncc([C@@H](CC(=O)O)n2ncc3cc(OCCc4ccc5c(n4)N[C@@H](C)CC5)ccc32)cn1 (single isomer, unassigned) [Example 177]	5000 nM
Cc1ncc([C@H](CC(=O)O)n2ncc3cc(OCCc4ccc5c(n4)N[C@@H](C)CC5)ccc32)cn1 (single isomer, unassigned) [Example 178]	110 nM
COc1ccc(C(CC(=O)O)n2ncc3c(CCCc4ccc5c(n4)NCCC5)cccc32)cn1 (stereo not shown) [Example 1, 3-(6-Methoxypyridin-3-yl)-3-(4-(3-(5,6,7,8-tetrahydro-1,8-naphthyridin-2-yl)propyl)-1H-indazol-1-yl)propanoic acid]	1600 nM
COc1ccc(C(CC(=O)O)n2ncc3cc(CCc4ccc5c(n4)NCCC5)ccc32)cn1 (stereo not shown) [Example 2, 3-(6-Methoxypyridin-3-yl)-3-(5-(2-(5,6,7,8-tetrahydro-1,8-naphthyridin-2-yl)ethyl)-1H-indazol-1-yl)propanoic acid]	110 nM
COc1ccc(C(CC(=O)O)n2ncc3c(OCCc4ccc5c(n4)NCCC5)cccc32)cn1 (stereo not shown) [Example 3, 3-(6-Methoxypyridin-3-yl)-3-(4-(2-(5,6,7,8-tetrahydro-1,8-naphthyridin-2-yl)ethoxy)-1H-indazol-1-yl)propanoic acid]	2300 nM
O=C(N[C@@H](Cn1cc2cc(OCCc3ccc4c(n3)NCCC4)ccc2n1)C(=O)O)OCc1ccccc1 [Example 4, (S)-2-(((Benzyloxy)carbonyl)amino)-3-(5-(2-(5,6,7,8-tetrahydro-1,8-naphthyridin-2-yl)ethoxy)-2H-indazol-2-yl)propanoic acid]	21 nM
O=C(O)CC(c1ccccc1)n1ncc2cc(OCCCc3ccc4c(n3)NCCC4)ccc21 (stereo not shown) [Example 5, 3-Phenyl-3-(5-(3-(5,6,7,8-tetrahydro-1,8-naphthyridin-2-yl)propoxy)-1H-indazol-1-yl)propanoic acid]	440 nM
COc1ccc([C@H](CC(=O)O)n2cc3cc(OCCc4ccc5c(n4)NCCC5)ccc3n2)cn1 [Example 6, (S)-3-(6-Methoxypyridin-3-yl)-3-(5-(2-(5,6,7,8-tetrahydro-1,8-naphthyridin-2-yl)ethoxy)-2H-indazol-2-yl)propanoic acid]	600 nM
COc1ccc([C@H](CC(=O)O)n2cc3ccc(CCc4ccc5c(n4)NCCC5)cc3n2)cn1 [Example 7, (S)-3-(6-Methoxypyridin-3-yl)-3-(6-(2-(5,6,7,8-tetrahydro-1,8-naphthyridin-2-yl)ethyl)-2H-indazol-2-yl)propanoic acid]	6.6 nM
COc1ccc([C@H](CC(=O)O)n2cc3ccc(Cc4cc5c(nc4C)NCCC5)cc3n2)cn1 [Example 8, (S)-3-(6-Methoxypyridin-3-yl)-3-(6-((2-methyl-5,6,7,8-tetrahydro-1,8-naphthyridin-3-yl)methyl)-2H-indazol-2-yl)propanoic acid]	390 nM
COc1ccc([C@H](CC(=O)O)n2cc3ccc(CCCc4ccc5c(n4)NCCC5)cc3n2)cn1 [Example 9, (S)-3-(6-Methoxypyridin-3-yl)-3-(6-(3-(5,6,7,8-tetrahydro-1,8-naphthyridin-2-yl)propyl)-2H-indazol-2-yl)propanoic acid]	2.6 nM
COc1ccc([C@H](CC(=O)O)n2cc3ccc(CCc4cc5c(nc4C)NCCC5)cc3n2)cn1 [Example 10, (S)-3-(6-Methoxypyridin-3-yl)-3-(6-(2-(2-methyl-5,6,7,8-tetrahydro-1,8-naphthyridin-3-yl)ethyl)-2H-indazol-2-yl)propanoic acid]	160 nM
COc1ccc(C(CC(=O)O)n2ncc3nc(OCCc4ccc5c(n4)NCCC5)ccc32)cn1 (stereo not shown) [Example 11, 3-(6-Methoxypyridin-3-yl)-3-(5-(2-(5,6,7,8-tetrahydro-1,8-naphthyridin-2-yl)ethoxy)pyrazolo[4,3-b]pyridin-1-yl)propanoic acid]	120 nM
COc1ccc(C(CC(=O)O)n2ncc3cc(OCCNC4=NCCN4)ccc32)cn1 (stereo not shown) [Example 12, 3-(5-(2-((4,5-Dihydroimidazol-2-yl)amino)ethoxy)-1H-indazol-1-yl)-3-(6-methoxypyridin-3-yl)propanoic acid]	2000 nM
Cc1cc(C)c(S(=O)(=O)NC(Cn2ncc3cc(OCCc4ccc5c(n4)NCCC5)ccc32)C(=O)O)c(C)c1 (stereo not shown) [Example 13, 3-(5-(2-(5,6,7,8-Tetrahydro-1,8-naphthyridin-2-yl)ethoxy)-1H-indazol-1-yl)-2-((2,4,6-trimethylphenyl)sulfonamido)propanoic acid]	320 nM
O=C(NC(Cn1ncc2cc(OCCc3ccc4c(n3)NCCC4)ccc21)C(=O)O)OCc1ccccc1 (stereo not shown) [Example 14, 2-(((Benzyloxy)carbonyl)amino)-3-(5-(2-(5,6,7,8-tetrahydro-1,8-naphthyridin-2-yl)ethoxy)-1H-indazol-1-yl)propanoic acid]	300 nM
O=C(O)C[C@H](c1cnc2ccccc2n1)n1ncc2cc(OCCc3ccc4c(n3)NCCC4)ccc21 [Example 16, (R)-3-(Quinoxalin-2-yl)-3-(5-(2-(5,6,7,8-tetrahydro-1,8-naphthyridin-2-yl)ethoxy)-1H-indazol-1-yl)propanoic acid]	137 nM
O=C(O)CC(c1cc(Cl)cc(Cl)c1)n1ncc2c(CCCc3ccc4c(n3)NCCC4)cccc21 (stereo not shown) [Example 18, 3-(3,5-Dichlorophenyl)-3-(4-(3-(5,6,7,8-tetrahydro-1,8-naphthyridin-2-yl)propyl)-1H-indazol-1-yl)propanoic acid]	2700 nM
O=C(O)CC(c1cnc2ccccc2n1)n1ncc2c(CCCc3ccc4c(n3)NCCC4)cccc21 (stereo not shown) [Example 19, 3-(Quinoxalin-2-yl)-3-(4-(3-(5,6,7,8-tetrahydro-1,8-naphthyridin-2-yl)propyl)-1H-indazol-1-yl)propanoic acid]	220 nM
COc1ccc(C(CC(=O)O)n2ncc3cc(CCCc4ccc5c(n4)NCCC5)ccc32)cn1 (stereo not shown) [Example 20, 3-(6-Methoxypyridin-3-yl)-3-(5-(3-(5,6,7,8-tetrahydro-1,8-naphthyridin-2-yl)propyl)-1H-indazol-1-yl)propanoic acid]	70 nM
O=C(O)CC(c1cc(Cl)cc(Cl)c1)n1ncc2cc(CCCc3ccc4c(n3)NCCC4)ccc21 (stereo not shown) [Example 21, 3-(3,5-Dichlorophenyl)-3-(5-(3-(5,6,7,8-tetrahydro-1,8-naphthyridin-2-yl)propyl)-1H-indazol-1-yl)propanoic acid]	44 nM
O=C(O)CC(c1cnc2ccccc2n1)n1ncc2cc(CCCc3ccc4c(n3)NCCC4)ccc21 (stereo not shown) [Example 22, 3-(Quinoxalin-2-yl)-3-(5-(3-(5,6,7,8-tetrahydro-1,8-naphthyridin-2-yl)propyl)-1H-indazol-1-yl)propanoic acid]	190 nM
CN(C)C(=O)c1cccc(C(CC(=O)O)n2ncc3cc(CCCc4ccc5c(n4)NCCC5)ccc32)c1 (stereo not shown) [Example 23, 3-(3-(Dimethylcarbamoyl)phenyl)-3-(5-(3-(5,6,7,8-tetrahydro-1,8-naphthyridin-2-yl)propyl)-1H-indazol-1-yl)propanoic acid]	61 nM

Source: patent US10745384B2, “Indazole derivatives as αv integrin antagonists” (BRISTOL-MYERS SQUIBB COMPANY, priority 2016, dated 2020)
